Legend:
[1] = tested on: Streptococcus pyogenes; assay: Spectrum of antibacterial activity of GML; format: cell-based; settings: optimal growth conditions; 4 strains tested
[2] = tested on: Group G Streptococcus; assay: Spectrum of antibacterial activity of GML; format: cell-based; settings: optimal growth conditions; 1 strain tested
[3] = tested on: Streptococcus suis; assay: Spectrum of antibacterial activity of GML; format: cell-based; settings: optimal growth conditions; 1 strain tested
[4] = tested on: Streptococcus sanguinis; assay: Spectrum of antibacterial activity of GML; format: cell-based; settings: optimal growth conditions; 1 strain tested
[5] = tested on: Listeria monocytogenes; assay: Spectrum of antibacterial activity of GML; format: cell-based; settings: optimal growth conditions; 1 strain tested
[6] = tested on: Bacillus anthracis Sterne; format: cell-based; settings: optimal growth conditions; 1 strain tested
[7] = tested on: Bacillus cereus; assay: Spectrum of antibacterial activity of GML; format: cell-based; settings: optimal growth conditions; 1 strain tested
[8] = tested on: Clostridium perfringens; format: cell-based; settings: optimal growth conditions; 1 strain tested
[9] = tested on: Haemophilus influenzae Non-typable; assay: Spectrum of antibacterial activity of GML; format: cell-based; settings: optimal growth conditions; 2 strains tested
[10] = tested on: Campylobacter jejuni; assay: Spectrum of antibacterial activity of GML; format: cell-based; settings: optimal growth conditions; 1 strain tested
[11] = tested on: Bordetella bronchiseptica; assay: Spectrum of antibacterial activity of GML; format: cell-based; settings: optimal growth conditions; 1 strain tested
[12] = tested on: Pseudomonas aeruginosa; assay: Spectrum of antibacterial activity of GML; format: cell-based; settings: optimal growth conditions; 1 strain tested
[13] = tested on: Burkholderia cenocepacia; assay: Spectrum of antibacterial activity of GML; format: cell-based; settings: optimal growth conditions; 1 strain tested
[14] = tested on: Pasteurella multocida; assay: Spectrum of antibacterial activity of GML; format: cell-based; settings: optimal growth conditions; 1 strain tested
[15] = tested on: Bacteroides fragilis; assay: Spectrum of antibacterial activity of GML; format: cell-based; settings: optimal growth conditions; 2 strains tested
[16] = tested on: Fusobacterium species; assay: Spectrum of antibacterial activity of GML; format: cell-based; settings: optimal growth conditions; 1 strain tested
[17] = tested on: Escherichia coli; assay: Spectrum of antibacterial activity of GML; format: cell-based; settings: optimal growth conditions; 2 strains tested
[18] = tested on: Salmonella minnesota; assay: Spectrum of antibacterial activity of GML; format: cell-based; settings: optimal growth conditions; 1 strain tested
[19] = tested on: Mycobacterium phlei; assay: Spectrum of antibacterial activity of GML; format: cell-based; settings: optimal growth conditions; 1 strain tested
[20] = tested on: Mycobacterium tuberculosis; format: cell-based
[21] = tested on: Mycoplasma hominis; assay: Spectrum of antibacterial activity of GML; format: cell-based; settings: optimal growth conditions; 1 strain tested
[22] = tested on: Mycobacterial species; format: cell-based
[23] = tested on: Gardnerella vaginalis; assay: GML in vegetable oil, growth in Todd Hewitt broth (CFU/mL); format: cell-based; settings: GML in olive, 18 hours, 37° C.
[24] = tested on: Streptococcus agalactiae; assay: as above; format: cell-based; settings: GML in olive, palm or corn oil (all 3); 18 hours, 37° C.
[25] = tested on: Candida albicans; assay: as above; format: cell-based; settings: GML in olive, palm or corn oil (all 3); 18 hours, 37° C.
[26] = tested on: Staphylococcus aureus MNPE (methicillin sensitive) and MW2 (methicillin resistant); assay: as above; format: cell-based; settings: both strains; GML in olive, palm or corn oil (all 3); 18 hours, 37° C.
[27] = tested on: non-typable Haemophilus influenzae; format: cell-based
[28] = tested on: S. aureus biofilm; assay: Treatment of previously formed biofilms; format: cell-based; settings: 48 hour biofilm; 500 μg/mL GML for 60 minutes at 37° C.
[29] = tested on: E. coli (Watson strain); assay: GML and EDTA on the growth of E. coli; format: cell-based; settings: 24 hours; EDTA 0.05 M to 0.00005 M; GML 100 μg/mL
Experimental: E. coli (Watson strain) was adjusted to I.2×10^7/mL in Todd Hewitt media. […] Cultures were incubated with shaking (200 RPM) for 24 hours, at which time samples were removed for plate counting. To further assess the combined effects of GML and EDTA, the experiment was carried out as above, and the relative effects on the growth of E. coli of EDTA alone or the combination of GML and EDTA were assessed in direct comparison to GML alone.

[30] = tested on: E. coli (Watson strain); assay: Effect of pH on GML activity; format: cell-based; settings: for bactericidal GML concentration: 24 hours
Experimental: An experiment was conducted to determine the effect of GML in the presence of various pH levels on the growth of E. coli. E. coli (Watson strain) was grown in Todd Hewitt media and adjusted to […]. Using acetate buffer, the pH of the cultures was adjusted to 5.0, 6.0, or 7.0. […] Samples were removed for enumeration of CFU/mL at 24 hours.

[31] = tested on: Haemophilus influenzae; assay: Effect of pH on GML activity; format: cell-based; settings: 1 μg/mL GML
Experimental: A similar experiment was carried out to assess the effect of GML on the growth of Haemophilus influenzae at various pHs. 1 μg/mL GML had no effect on the growth of H. influenzae at a pH of 7.0 (FIG. 13).

[32] = tested on: P. aeruginosa (strain PAO 1); assay: Effect of pH on GML activity; format: cell-based, Pseudomonas aeruginosa; settings: GML 10 μg/mL to 5000 μg/mL, 24 hours
Experimental: The effect of GML at a range of concentrations and in the presence of a range of pH levels on the growth of Pseudomonas aeruginosa was also determined. P. aeruginosa (strain PAO 1) was inoculated in Todd Hewitt broth at 5.7×10^6/mL. GML was added to cultures at a range of concentrations from 10 μg/mL to 5000 μg/mL, and the pH was adjusted to 5.0, 6.0, or 7.0. CFU/mL was determined after 24 hours of incubation. […] A pH of 5.0 in the absence of GML was somewhat inhibitory for the growth of P. aeruginosa.

[33] = tested on: S. aureus (strain MN8); assay: Effect of non-aqueous gel on antimicrobial activity of GML; format: cell-based; settings: GML alone in Todd Hewitt broth; 24 hours
[34] = tested on: S. aureus MN8; assay: Bactericidal activity of GML versus lauric acid; format: cell-based; settings: 24 hours, 37° C.; bactericidal = at least 3 log reduction
[35] = tested on: S. pyogenes; assay: Bactericidal activity of GML versus lauric acid; format: cell-based; settings: 24 hours, 37° C.

With Glycerol monolaurate [GML] the “Average Bactericidal Concentration of GML” value [1] was 30 µg/mL, the “Average Bactericidal Concentration of GML” value [2] was 50 µg/mL and the “Average Bactericidal Concentration of GML” value [3] was 50 µg/mL. For the same substance, the “Average Bactericidal Concentration of GML” value [4] was 50 µg/mL, the “Average Bactericidal Concentration of GML” value [5] was 50 µg/mL and the “Average Bactericidal Concentration of GML” value [6] was 50 µg/mL. For the same substance, the “Average Bactericidal Concentration of GML” value [7] was 50 µg/mL, the “Average Bactericidal Concentration of GML” value [8] was 1 µg/mL and the “Average Bactericidal Concentration of GML” value [9] was 50 µg/mL. The “Average Bactericidal Concentration of GML” value [10] was 1 µg/mL, the “Average Bactericidal Concentration of GML” value [11] was 1 µg/mL and the “Average Bactericidal Concentration of GML” value [12] was “Not Susceptible”. The “Average Bactericidal Concentration of GML” value [13] was 500 µg/mL, the “Average Bactericidal Concentration of GML” value [14] was 500 µg/mL and the “Average Bactericidal Concentration of GML” value [15] was 50 µg/mL. The “Average Bactericidal Concentration of GML” value [16] was 50 µg/mL, the “Average Bactericidal Concentration of GML” value [17] was “Not Susceptible” and the “Average Bactericidal Concentration of GML” value [18] was “Not Susceptible”. The “Average Bactericidal Concentration of GML” value [19] was 100 µg/mL, the “Average Bactericidal Concentration of GML” value [20] was 100 µg/mL and the “Average Bactericidal Concentration of GML” value [21] was 1 µg/mL. The “GML concentration at which organisms were killed” value [22] was at least 50 µg/mL, the “GML concentration at which growth was completely or nearly completely inhibited” value ([23]; palm or corn oil (all 3)) was at least 20 µg/mL and the “GML concentration at which CFU/mL were reduced” value ([23]; palm or corn oil (all three)) was at most 10 µg/mL. For the same substance, the “GML concentration at which growth was completely or nearly completely inhibited” value [24] was at least 20 µg/mL, the “GML concentration at which growth was inhibited” value [25] was 100 µg/mL and the “GML concentration at which growth was inhibited” value [26] was 100 µg/mL. The “GML concentration inhibiting biofilm formation (crystal violet, absorbance 595 nm)” value [27] was at most 1.0 µg/mL, the “bactericidal GML concentration in the context of a biofilm (CFU/mL)” value [27] was 50 µg/mL and the “bactericidal activity on previously formed biofilm (CFU/mL)” value [28] was “killed”. The “biofilm material attached to the wells (crystal violet staining)” value [28] was “nearly completely removed biofilm material”, the “anti-bacterial activity on growth of E. coli (CFU/mL)” value [29] was “did not exhibit any bactericidal activity” and the “bactericidal GML concentration” value ([30]; pH 5.0) was 0.1 µg/mL. The “bactericidal GML concentration” value ([30]; pH 6.0) was 50 µg/mL, the “bactericidal GML concentration” value ([30]; pH 7.0) was over 5000 µg/mL and the “increase in susceptibility to GML with each unit drop in pH” value ([30]; pH 7.0 to 5.0) was 500 times. The “effect on growth (CFU/mL)” value ([31]; pH 6.0, 4, 8, and 24 hours) was “completely abrogated the growth”, the “effect on growth (CFU/mL)” value ([31]; pH 7.0) was “no effect” and the “effect on growth (CFU/mL)” value ([32]; pH 5.0) was “further inhibited P. aeruginosa growth in a dose-dependent manner”. The “effect on growth (CFU/mL)” value ([32]; pH 6.0 or 7.0) was “no concentration of GML was inhibitory”, the “GML concentration inhibiting growth (CFU/mL)” value [33] was at least 100 µg/mL and the “fold lower bactericidal concentration than lauric acid” value [34] was 200 fold. For the same substance, the “fold more bactericidal for S. pyogenes than for S. aureus” value [35] was 5 fold and the “fold lower bactericidal concentration than lauric acid” value ([35]; 7% CO2, bactericidal = at least 3 log reduction) was 500 fold.
